ChEMBL document CHEMBL1201862, “PubChem BioAssay data set” (2004)
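In this assay, cells in 96-well plates receive the compound at five concentrations for 48 hours. Endpoints are linearly interpolated between the surrounding concentrations. GI50 is the concentration that inhibits growth by half.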 The source made the active and inactive calls. Cut-off read from the data, not from the text of the source: active = GI50 up to about 1.1 µM and inactive = higher.

Experiments:
Test in all cases: NCI tumour cell line growth inhibition, 48 h
UACC-257 = test system: UACC-257
SNB-19 = test system: SNB-19
SR = test system: SR
CCRF-CEM = test system: CCRF-CEM
HCC 2998 = test system: HCC 2998
RPMI-8226 = test system: RPMI-8226
MDA-N = test system: MDA-N
M14 = test system: M14
OVCAR-8 = test system: OVCAR-8
RXF 393 = test system: RXF 393
SF-268 = test system: SF-268
HT-29 = test system: HT-29
SW-620 = test system: SW-620
NCI-H23 = test system: NCI-H23
KM12 = test system: KM12
Malme-3M = test system: Malme-3M
Hs-578T = test system: Hs-578T
SK-MEL-5 = test system: SK-MEL-5
NCI/ADR-RES = test system: NCI/ADR-RES
MDA-MB-435 = test system: MDA-MB-435
MDA-MB-231 = test system: MDA-MB-231
SF-295 = test system: SF-295
MCF7 = test system: MCF7
LOX IMVI = test system: LOX IMVI
U-251 = test system: U-251
HOP-62 = test system: HOP-62
OVCAR-5 = test system: OVCAR-5
SK-MEL-28 = test system: SK-MEL-28
ACHN = test system: ACHN
HCT-15 = test system: HCT-15
SK-OV-3 = test system: SK-OV-3
DU-145 = test system: DU-145
OVCAR-3 = test system: OVCAR-3
PC-3 = test system: PC-3
OVCAR-4 = test system: OVCAR-4
HCT-116 = test system: HCT-116
IGROV-1 = test system: IGROV-1
NCI-H226 = test system: NCI-H226
COLO 205 = test system: COLO 205
HL-60 = test system: HL-60
NCI-H522 = test system: NCI-H522
SNB-75 = test system: SNB-75
T47D = test system: T47D
A498 = test system: A498
UO-31 = test system: UO-31
BT-549 = test system: BT-549
SN12C = test system: SN12C
NCI-H460 = test system: NCI-H460
EKVX = test system: EKVX
CAKI-1 = test system: CAKI-1
MOLT-4 = test system: MOLT-4
786-0 = test system: 786-0
K562 = test system: K562
SF-539 = test system: SF-539
UACC-62 = test system: UACC-62

## Nc1ccc(OCCCc2c(-c3ccccc3)[nH]c(N)nc2=O)cc1
UACC-257
  GI50: 80.5 µM (inactive)
SNB-19
  GI50: 67.6 µM (inactive)
SR
  GI50: > 100 µM (inactive)
CCRF-CEM
  GI50: 43 µM (inactive)
HCC 2998
  GI50: 22.8 µM (inactive)
RPMI-8226
  GI50: 84.9 µM (inactive)
MDA-N
  GI50: 31.9 µM (inactive)
M14
  GI50: 32.5 µM (inactive)
OVCAR-8
  GI50: 44.4 µM (inactive)
RXF 393
  GI50: 63.8 µM (inactive)
SF-268
  GI50: > 100 µM (inactive)
HT-29
  GI50: < 0.01 µM (active)
SW-620
  GI50: > 100 µM (inactive)
NCI-H23
  GI50: 47.2 µM (inactive)
KM12
  GI50: 67.8 µM (inactive)
Malme-3M
  GI50: 26.8 µM (inactive)
Hs-578T
  GI50: 12.3 µM (inactive)
SK-MEL-5
  GI50: 41.1 µM (inactive)
NCI/ADR-RES
  GI50: > 100 µM (inactive)
MDA-MB-435
  GI50: 49.7 µM (inactive)
MDA-MB-231
  GI50: 29.9 µM (inactive)
SF-295
  GI50: 34.8 µM (inactive)
MCF7
  GI50: 40.3 µM (inactive)
LOX IMVI
  GI50: 31 µM (inactive)
U-251
  GI50: 69.5 µM (inactive)
HOP-62
  GI50: 20.6 µM (inactive)
OVCAR-5
  GI50: > 100 µM (inactive)
SK-MEL-28
  GI50: 27.5 µM (inactive)
ACHN
  GI50: 33.9 µM (inactive)
HCT-15
  GI50: > 100 µM
SK-OV-3
  GI50: 21.4 µM (inactive)
DU-145
  GI50: 48.2 µM (inactive)
OVCAR-3
  GI50: 25.2 µM (inactive)
PC-3
  GI50: 41.7 µM (inactive)
OVCAR-4
  GI50: 31.6 µM (inactive)
HCT-116
  GI50: 29 µM (inactive)
IGROV-1
  GI50: 31.3 µM (inactive)
NCI-H226
  GI50: 31 µM (inactive)
COLO 205
  GI50: 26 µM (inactive)
HL-60
  GI50: 86.9 µM (inactive)
NCI-H522
  GI50: 18.4 µM (inactive)
SNB-75
  GI50: 66.4 µM (inactive)
T47D
  GI50: 12.2 µM (inactive)
A498
  GI50: 16.9 µM (inactive)
UO-31
  GI50: 26 µM (inactive)
BT-549
  GI50: 22.5 µM (inactive)
SN12C
  GI50: 50.7 µM (inactive)
NCI-H460
  GI50: 24.6 µM (inactive)
EKVX
  GI50: 0.398 µM (active)
CAKI-1
  GI50: 91.6 µM (inactive)
MOLT-4
  GI50: 34.5 µM (inactive)
786-0
  GI50: 45.2 µM (inactive)
K562
  GI50: 74.5 µM (inactive)
SF-539
  GI50: 28.1 µM (inactive)
UACC-62
  GI50: 16.1 µM (inactive)
